Test results from PMC9028714 (Journal of Personalized Medicine, 2022).

Legend:
[1] = design: method as in PMID 33808739, PMID 30223963; conditions: cited from earlier work
[2] = Multivariable linear regression: phenotypic activity of CYP3A and P-gp vs AUC0–6h or C2h of apixaban and rivaroxaban; conditions: for observed variability of AUC0–6h predicted by the model: Table 3; for C2h, β (CI95%): Age 65–74 years / C2h, β (CI95%): Age 75–84 years / C2h, β (CI95%): Age >85 years: reference category <65 years; for C2h, β (CI95%): Gender, Female: reference category Male;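 for all read-outs here: outcome C2h is the drug concentration 2 h post-dose, with regression coefficient errors from a sandwich estimator after a Breusch–Pagan heteroscedasticity check and missing data excluded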
Description: Dependent variables (outcomes) for both drugs were defined as being the values of AUC0–6h and concentration 2 h after drug administration (C2h). […] The Breusch–Pagan test was used to detect a potential heteroscedasticity issue, and consistent standard errors of the regression coefficients were assessed with a sandwich estimator. […] In addition, association between dependent variables and predicted activity of CYP3A and P-gp from genotype were also adjusted for a pre-specified set of potential confounding factors (gender, CrCl, BMI, age, dose). Spearman’s correlation was used to assess the concordance between genotype and phenotype of CYP3A and P-gp. Missing data were excluded from the analysis.

CYP2J2 and CYP1A2 = system: CYP2J2 and CYP1A2; design: method as in PMID 32157630; conditions: cited from earlier work
CYP3A = system: CYP3A; design: method as in PMID 32157630; conditions: cited from earlier work
[3] = Multivariable linear regression: genotype of CYP3A and P-gp vs AUC0–6h or C2h of apixaban and rivaroxaban; assay type: in vivo, human; conditions: for observed variability of AUC0–6h explained by the model: Table 4; for C2h, β (CI95%): Age 65–74 years / C2h, β (CI95%): Age 75–84 years / C2h, β (CI95%): Age >85 years: reference category <65 years; for C2h, β (CI95%): Gender, Female: reference category Male; for C2h, β (CI95%): Genotype ABCB1 1236C>T, Heterozygous for mutation / C2h, β (CI95%): Genotype ABCB1 1236C>T, Homozygous for mutation / C2h, β (CI95%): Genotype ABCB1 2677G>T, Heterozygous for mutation / C2h, β (CI95%): Genotype ABCB1 2677G>T, Homozygous for mutation / C2h, β (CI95%): Genotype ABCB1 3435C>T, Heterozygous for mutation / C2h, β (CI95%): Genotype ABCB1 3435C>T, Homozygous for mutation: reference category No mutation
Description: Genotyping of selected CYP3A4/5 and ABCB1 polymorphisms was carried out on QuantStudio^TM 12K Flex Real-Time (RT) PCR System with TaqMan® OpenArray^TM genotyping assays and TaqMan® MGB Probe Validated Single Nucleotide Polymorphism (SNP) Genotyping Assays (Applied Biosystems, Thermo Fisher Scientific, Waltham, MA, USA), respectively. These methods were previously described in detail in the literature. […] All SNPs of CYP3A4/5 integrated in the TaqMan® OpenArray^TM PGx Express Panel (Thermo Fisher Scientific, Waltham, MA, USA) were considered and are listed in Supplementary Table S1. Finally, raw genotyping data were processed with the TaqMan® Genotyper software (Thermo Fisher Scientific, Waltham, MA, USA) according to the manufacturer’s protocol.
AlleleTyper™ Software and translational tables (Thermo Fisher Scientific and PharmGKB, Stanford, CA, USA) were used to translate genetic pattern information from genotyping (SNPs) to pharmacogenomic gene-level star (*) nomenclature. Allele and genotype frequencies were determined, and Hardy–Weinberg equilibrium (HWE) was tested. […] The CYP3A activity predicted from the genotype combines the effects of CYP3A4 and CYP3A5 SNPs on enzyme activities, as listed in the PharmVar and PharmGKB databases. Patients were classified into poor metabolizer (PM), intermediate metabolizer (IM), normal metabolizer (NM), and ultra-rapid metabolizer (UM) according to the classification described by Andreu et al..
Missing data were excluded from the analysis.

[4] = Apixaban and rivaroxaban capillary blood concentrations (DBS, LC-MS/MS) in hospitalized patients; assay type: in vivo, human; conditions: concentrations normalized by the dosing regimen
Description: Comedications were systematically screened to record patients taking CYP3A4/5 and/or P-gp inhibitors and/or inducers using the Lexicomp drug interaction analysis tool and the Geneva Table of CYP substrates, inhibitors, and inducers. Adequacy of dosage was assessed according to the SmPC criteria (indication, age, CrCl, and weight).
The DBS concentrations were determined using a validated LC-MS/MS method.
After agitation during 10 min, 10 μL of the supernatant was injected into the LC-MS/MS system. Separation was performed with a Kinetex® C18 column (50 × 2.1 mm, 2.6 µm) from Phenomenex (Brechbühler, Schlieren, Switzerland) under gradient conditions. The mobile phase was composed of formic acid 0.1% in water and in acetonitrile. The total run time was 7 min. Detection of analytes was obtained in positive mode using multiple reaction monitoring (MRM). Instrument parameters were as follows: curtain gas = 40 psi, collision gas = high, IonSpray voltage = […], temperature = 550 °C, ion source gas 1 = 60 psi, ion source gas 2 = 60 psi.

CYP2J2 = system: CYP2J2; design: method as in PMID 32157630; conditions: cited from earlier work
[5] = phenotype model, Table S3, reference category 2.5 mg bid
[6] = genotype model, Table S4, reference category 2.5 mg bid
[7] = genotype model, Table S4, reference category IM
[8] = phenotype model, Table S3, reference category 10 mg od
[9] = genotype model, Table S4, reference category 10 mg od

Row | observed variability of AUC0–6h predicted by the model ([2]; phenotype model) [%] | C2h, β (CI95%): ALAT, per unit ([2]; phenotype model, Table S3) | C2h, β (CI95%): CrCl, per unit ([2]; phenotype model, Table S3) | C2h, β (CI95%): Intercept ([2]; phenotype model, Table S3) | C2h, β (CI95%): MRmidazolam, per log10 ([2]; phenotype model, Table S3) | C2h, β (CI95%): Weight, per kg ([2]; phenotype model, Table S3) | C2h, β (CI95%): Age 65–74 years ([2]; phenotype model, Table S3) | C2h, β (CI95%): Age 75–84 years ([2]; phenotype model, Table S3) | C2h, β (CI95%): Age >85 years ([2]; phenotype model, Table S3) | C2h, β (CI95%): Gender, Female ([2]; phenotype model, Table S3) | observed variability of AUC0–6h explained by the model [3] | C2h, β (CI95%): ALAT, per unit ([3]; genotype model, Table S4) | C2h, β (CI95%): CrCl, per unit ([3]; genotype model, Table S4) | C2h, β (CI95%): Intercept ([3]; genotype model, Table S4) | C2h, β (CI95%): Age 65–74 years ([3]; genotype model, Table S4) | C2h, β (CI95%): Age 75–84 years ([3]; genotype model, Table S4) | C2h, β (CI95%): Age >85 years ([3]; genotype model, Table S4) | C2h, β (CI95%): Predicted phenotype from genotype CYP3A, PM [3, 7] | SMILES | excreted by the kidney [1] | share of metabolism CYP3A is responsible for (CYP3A) [%] | also measured
1 | 47 | 0.06 (−0.13 to 0.25) | −0.40 (−0.67 to −0.13) | −0.46 (−51.98 to 51.05) | 6.07 (−8.08 to 20.22) | −0.02 (−0.37 to 0.33) | 8.61 (−10.00 to 27.23) | 13.69 (−5.59 to 32.97) | 17.73 (−3.37 to 38.82) | 4.07 (−5.94 to 14.08) | approximately 40% | 0.07 (−0.17 to 0.32) | −0.48 (−0.75 to −0.21) | 80.68 (42.43 to 118.93) | 5.10 (−15.52 to 25.71) | 9.29 (−10.54 to 29.12) | 14.31 (−10.69 to 39.31) | −18.61 (−36.00 to −1.21) | COc1ccc(-n2nc(C(N)=O)c3c2C(=O)N(c2ccc(N4CCCCC4=O)cc2)CC3)cc1 [Apixaban] | 25–30% | 15 | decrease in CrCl with an effect comparable to P-gp phenoconversion NM to PM ([2]; according to the AUC0–6h model): 37.6 mL/min/1.73 m^2; C2h, β (CI95%): Dose 5 mg bid [2, 5]: 51.97 (41.16 to 62.78); C2h, β (CI95%): Dose 10 mg bid [2, 5]: 116.28 (80.44 to 152.12); contribution of CYP2J2 and CYP1A2 together to metabolism (CYP2J2 and CYP1A2): 6%; C2h, β (CI95%): Dose 5 mg bid [3, 6]: 51.17 (37.82 to 64.51); C2h, β (CI95%): Dose 10 mg bid [3, 6]: 113.17 (81.73 to 145.52); C2h, β (CI95%): Gender, Female ([3]; genotype model, Table S4): 5.44 (−5.98 to 16.87); C2h, β (CI95%): Genotype ABCB1 1236C>T, Heterozygous for mutation ([3]; genotype model, Table S4): −1.26 (−23.09 to 20.57); C2h, β (CI95%): Genotype ABCB1 1236C>T, Homozygous for mutation ([3]; genotype model, Table S4): −9.35 (−36.76 to 18.06); C2h, β (CI95%): Genotype ABCB1 2677G>T, Heterozygous for mutation ([3]; genotype model, Table S4): 8.08 (−14.86 to 31.01); C2h, β (CI95%): Genotype ABCB1 2677G>T, Homozygous for mutation ([3]; genotype model, Table S4): 9.94 (−17.81 to 37.69); C2h, β (CI95%): Genotype ABCB1 3435C>T, Heterozygous for mutation ([3]; genotype model, Table S4): −7.52 (−24.64 to 9.60); C2h, β (CI95%): Genotype ABCB1 3435C>T, Homozygous for mutation ([3]; genotype model, Table S4): −2.70 (−18.04 to 12.65); inter-individual CV of blood concentrations ([4]; administered bid): 47.7%
2 | 27 | 0.05 (−0.14 to 0.23) | −0.017(−0.49 to 0.34) | −77.74 (−161.1 to 5.63) | −8.35 (−30.17 to 13.47) | 0.23 (−0.18 to 0.63) | 15.15 (−0.06 to 30.37) | 10.55 (−12.65 to 33.75) | 7.97 (−15.72 to 31.67) | 1.91 (−13.03 to 16.84) | ~18% | 0.08 (−0.06 to 0.22) | −0.14 (−0.61 to 0.32) | −10.99 (−88.50 to 66.51) | 24.56 (8.41 to 40.71) | 25.66 (−1.56 to 52.88) | 19.86 (−9.35 to 49.08) | 24.72 (−8.3 to 57.73) | O=C(NC[C@H]1CN(c2ccc(N3CCOCC3=O)cc2)C(=O)O1)c1ccc(Cl)s1 [Rivaroxaban] | 66% | 18 | C2h, β (CI95%): Dose 15 mg bid [2, 8]: 41.5 (0.24 to 82.75); C2h, β (CI95%): Dose 15 mg od [2, 8]: 18.95 (−21.77 to 59.66); C2h, β (CI95%): Dose 20 mg od [2, 8]: 39.98 (−4.47 to 84.44); contribution of CYP2J2 to total clearance (CYP2J2): 14%; C2h, β (CI95%): Weight, per kg ([3]; genotype model, Table S4): 0.46 (0.04 to 0.88); C2h, β (CI95%): Dose 15 mg bid [3, 9]: 60.99 (29.95 to 92.04); C2h, β (CI95%): Dose 15 mg od [3, 9]: 29.53 (−2.56 to 61.63); C2h, β (CI95%): Dose 20 mg od [3, 9]: 57.40 (22.52 to 92.28); C2h, β (CI95%): Predicted phenotype from genotype CYP3A, NM [3, 7]: 20.74 (1.20 to 40.28); C2h, β (CI95%): Gender, Female ([3]; genotype model, Table S4): 2.56 (−12.47 to 17.59); C2h, β (CI95%): Genotype ABCB1 1236C>T, Heterozygous for mutation ([3]; genotype model, Table S4): −16.43 (−46.63 to 13.77); C2h, β (CI95%): Genotype ABCB1 1236C>T, Homozygous for mutation ([3]; genotype model, Table S4): −1.63 (−39.30 to 36.03); C2h, β (CI95%): Genotype ABCB1 2677G>T, Heterozygous for mutation ([3]; genotype model, Table S4): 23.36 (−8.85 to 55.56); C2h, β (CI95%): Genotype ABCB1 2677G>T, Homozygous for mutation ([3]; genotype model, Table S4): 16.54 (−19.70 to 52.77); C2h, β (CI95%): Genotype ABCB1 3435C>T, Heterozygous for mutation ([3]; genotype model, Table S4): −8.53 (−32.11 to 15.04); C2h, β (CI95%): Genotype ABCB1 3435C>T, Homozygous for mutation ([3]; genotype model, Table S4): −12.17 (−32.48 to 8.14); inter-individual CV of blood concentrations ([4]; administered bid): 41.5%; inter-individual CV of blood concentrations ([4]; administered od): 51.8%
